System: IgE of peanut allergic patients
Test: Immunodot assay with sera of peanut allergic patients
Assay type: binding, human
Conditions: peptide-pIII fusion proteins spotted on nitrocellulose, patient sera diluted 1:10, FIG. 3
Procedure: Three selected IgE epitope-like peptides (ELP 2, ELP 5, ELP 6) were extracted as recombinant fusions with bacteriophage minor coat protein pIII from the periplasm of host bacteria with osmotic shock. Two target-unrelated control peptides also fused to protein pIII (binders to streptavidin and human leptin) were extracted in the same way and served as negative controls (C1, C2). Briefly, E. coli host bacteria were infected with individual phage clones and grown for 2 hours at 37° C. with agitation. Bacteria pellets were spun down at 5000×g for 10 min and resuspended in 1 ml of an ice-cold solution consisting of 20% sucrose, 200 mM Tris-HCl pH 8.0 and 1 mM EDTA supplemented with protease inhibitor cocktail (EZBlock™, BioVision, San Francisco, USA) at a dilution of 1:200. After 1 h incubation on ice with occasional stirring supernatants were harvested by centrifugation at 12000×g for 20 minutes at 4° C. Resulting periplasmic extracts containing […] fusion proteins were concentrated (4-5 fold) and sucrose buffer exchanged for PBS by ultrafiltration with 10 kDa cut-off membrane (Microsep Advance Centrifugal Device, Pall Corporation, New York, USA). For immunoprecipitation of each selected peptide, 20 μg of affinity purified rabbit IgG against Ara h 2 (INDOOR Biotechnologies, Charlottesville, Virginia, USA) were covalently coupled to 1 mg of Dynabeads M-280 Tosylactivated™ (Thermo Fisher Scientific) according to manufacturer's protocol. Control peptides were immunoprecipitated in the same way using 10 μg of anti-human leptin antibody (R and D Systems Cat #MAB398 RRID:AB_2136056) coupled to 1 mg of Dynabeads M-280 Tosylactivated™ in the case of peptide with the affinity toward human leptin and 0.5 mg of streptavidin-coupled beads (Dynabeads™ MyOne™ Streptavidin T1, Thermofisher Scientific) in the case of peptide with the affinity towards streptavidin. […]

For “DHPRYGP (IgE epitope-like peptide) [ELP 5]”, the “binding to IgE of peanut allergic patients” value (from here on “binding to IgE”) was “bind to patients' IgE”.
For “DHPRFNRDNDVA (IgE epitope-like peptide) [ELP 2]”, the “binding to IgE” value was “bind to patients' IgE”.
For “DHPRFST (IgE epitope-like peptide) [ELP 6]”, the “binding to IgE” value was “bind to patients' IgE”.

From US12415839B2, “IgE epitope-like peptides and uses thereof” (Univerza v Ljubljani, priority 2018, dated 2025)
